The target in assay [1] is human GOAT (Homo sapiens (Human), UniProt Q96T53). The assay can be described thus: In vitro cell free human GOAT enzymatic assay. The class given is biochemical. The conditions noted are these: purified GOAT enzyme, ELISA readout of acyl-ghrelin. How it is done: In Vitro Cell Free Human GOAT Enzymatic Assay
Human GOAT gene (Accession number: NM 001100916) is subcloned to pAN51 baculoviral expression vector. Baculovirus stock is prepared following the Bac-to-Bac Protocol provided by the vendor, Invitrogen, California, USA. Five mililiters of human GOAT baculoviral stock are added to 500 mL SDf cells in HyQ SFX-Insect™ media (HyClone catalog number SF130278.02) at the density of 1×10^6 cells per milliliter in a 2 L Erlenmeyer flask. The flask with human GOAT gene infected Sf9 cells is put on a plate shaker at 120 rpm at 28° C. for 48 hours. After 48 hours incubation, cells are centrifuged at 1,000×g for 10 min at 4° C. The cell pellets are collected and stored at −80° C. in a freezer until ready for further processing.
Preparation of Microsomal Membrane of GOAT Enzyme for the Enzymatic Assay:
One gram cell pellets are suspended in 9 mL chilled homogenization buffer (50 mM Tris-HCl, 250 mM sucrose, adjusted to pH 7.5 and sterile filtered through 0.2 μm Millipore filter). The cell suspension is transferred to a Dounce glass homogenizer. Cell pellets are homogenized with 40 strokes on ice. The homogenate is centrifuged at 3,000 rpm in a Beckman swing bucket rotor at 4° C. for 10 min to remove unbroken cells. The supernatant is collected and centrifuged at 40,000×g for 1 hour at 4° C. The resulting membrane pellet is suspended in the homogenization buffer using a Dounce glass homogenizer and stored at −20° C. in the freezer for the assay. For long term storage of the human GOAT enzyme membrane preparation, the suspended membrane is stored in a −80° C. freezer.
Human GOAT Enzymatic Assay Protocol:
Prepare test compounds in DMSO to make up a 0.2 mM stock solution. Serially dilute the stock solution in DMSO to obtain a ten-point dilution curve with final compound concentrations ranging from 10 μM to 0.5 nM in a 96-well round-bottom plate. Prepare enzyme and substrate solutions in assay buffer (0.02% TWEEN™-20 in 50 mM Tris, pH 7.5/250 mM sucrose/1 mg/mL BSA/10 mM EDTA). Add diluted compound (1 μL) to each well of row A to N of a corresponding low protein binding 384 well plate. Add human GOAT substrate mix (10 μL), consisting of human desacyl-ghrelin-biotin (CPC Scientific Inc., 6.0 μM final), octanoyl-coenzyme A (CoA) (Sigma, 60 μM final) and an AG specific antibody (WO 2006/091381)([…] final), to the compounds. Add GOAT-His/sf9 enzyme preparation, that has been prepared in assay buffer (9 μL), to each well of the plate containing substrate and test compounds resulting in a final concentration of 0.01 μg/mL to initiate the reaction. Incubate the mixture for 1 hour at RT on a gently rotating oscillator. Add 4M guanidine hydrochloride (20 μL) to all wells, mix, and incubate for 3 hours to stop the reaction.
Prepare ELISA plates (STREPTAVIDIN SPECTRAPLATE™ 384, Perkin Elmer) by blocking with 2% Heat-Inactivated FBS in PBS (40 μL) (Invitrogen) blocking buffer for 3 hours. Aspirate the blocking buffer from ELISA plate and add blocking buffer (23 μL) to columns 1-24, rows A-N. Reserve rows O and P for the acylghrelin standard curve. Add the reaction mix (2 μL) to the ELISA plates. Prepare a 10 point standard curve (biotin-labeled octanoyl-ghrelin) by serial 2× dilution in blocking buffer containing 0.2M Guanidine hydrochloride starting at 2.5 pM. Incubate the reaction mixture or biotin-labeled AG standard in the ELISA plate overnight at 4° C. […]

Assay [2] concerns the target GOAT (Mus musculus (Mouse), UniProt P0C7A3). The assay can be described thus: In vivo dose dependent 3 day BID study for GOAT inhibitor (plasma AG and UAG by ELISA). Also on record: species or system male C57BL/6 mice. The following applies: mice, 3 days; for reduction in AG to total ghrelin ratio: compared to vehicle-treated control animals; for decrease of plasma AG / increase of UAG: vs vehicle; for AG (% of control) / AG/Total-ghrelin (% of vehicle control) / UAG (% of vehicle control) / increase of UAG: plasma. The protocol: Comparing the change in the ratio of AG to total ghrelin in the compound treated group and that of the vehicle treated group reflects the degree of GOAT enzyme inhibition in vivo, due to the dynamic processing of UAG to AG by the GOAT enzyme. In the in vivo pharmacodynamic studies herein, the levels of AG and UAG in plasma and stomach in the vehicle and compound treated groups are measured by ELISA specifically to these two analytes. The total ghrelin level of each sample is computed as the sum of AG and UAG by these ELISA measurements. The ratio of AG to total ghrelin is defined by the level of AG in each sample divided by the level of total ghrelin in the same sample. The levels of AG, UAG and ratio of AG to total ghrelin in the vehicle treated group is computed and set as 100%. The relative change of these parameters in the compound treated group is then computed to determine the effectiveness of the test compound.
In Vivo Dose Dependent 3 Day BID Study for GOAT Inhibitor:E
Purchase male C57BL/6 mice from Harlaan (Indianapolis, Ind.) at 9 weeks of age. House the mice individually in a temperature-controlled (24° C.) facility with a 12 hours light/dark cycle (lights on 2200 h), and allow free access to a standard rodent chow (diet 2014, Harlan) and water. Typically, use the mice when they are 10-13 weeks of age at the time of the study. On day 0 of the experiment, randomize the mice into treatment groups (N=7/group) so each group has similar mean body weights. On day 1 and day 2, treat the animals with vehicle (1% hydroxyethylcellulose, 0.25% TWEEN™ 80, 0.05% antifoam) or test compound prepared in the vehicle as suspension at various dosages by oral gavage at 7 am and 7 pm. On day 3, fast the animals, move them into clean cages and dose with vehicle or the test compound again at 8 am by oral gavage. That same day at 1 pm, sacrifice the animals by decapitation to collect blood. For details of blood collection and plasma treatments see Blood collection and Extraction of Ghrelin from Plasma section below.
Collect approximately 600 μL blood into a pre-weighed EDTA tube containing 600 μL (defined as Vpreservative) freshly-prepared preservative (4 mM PEFABLOC® [4-(2-aminoethyl) benzenesulfonyl fluoride hydrochloride], 72 mM NaCl, 58 mM NaF, 0.032 N hydrochloric acid, pH 3.0) and mix immediately. Weigh the tube again and keep on ice. To accurately determine the exact blood volume of each sample using this blood collection procedure, the weight of the blood for each mouse is computed using the following equation: Weight of Blood=(Weight of the tube containing Blood+preservative)−(Weight of the tube containing preservative) Blood volume (Vblood)=(Weight of blood)/1.06
Note, the density of rodent blood is assumed as 1.06 g/mL.
Within 15 minutes after the blood collection, samples are centrifuged at 5000 rpm at 4° C. for 8 min. Remove plasma (650 μL) to a 5 mL glass tube containing 1 N hydrochloric acid (65 μL), mix and keep on ice.
Ghrelin Extraction by SEP-PAK® Column:
AG and UAG are extracted from plasma using SEP-PAK®_C18 column to remove interference prior to performing the ELISA. The solid phase extraction of AG and UAG peptides by SEP-PAK®_C18 columns can be performed on a vacuum manifold (Waters Corp) or using a peristaltic pump. The sample SEP-PAK®_column extraction procedure is independently applied to the plasma sample obtained from each individual mouse. The general extraction protocol is described as follows.
All solutions used for the entire protocol of the SEP-PAK® column extraction should be at ice cold condition. Wet SEP-PAK®_columns (WAT054960, Waters Corp, Milford Mass.) with 99.9% ACN/0.1% TFA (1 mL of solution of 100 mL ACN/0.1 mL TFA). […] Once liquid is removed from the column, stop the pressure. Equilibrate the columns with 3% ACN/0.1% TFA (I mL of 97 mL water, 3 mL ACN, 0.1 mL TFA). […] Dilute approximately 650 μL acidified plasma (defined as Vplasma added to column) to 1.4 mL ice cold 0.1% TFA. […]
On the technique in general: In an ELISA, binding on a coated surface is turned into a signal by an enzyme label.

The IC50 is the concentration needed to halve the response being measured. Higher therefore signals weaker potency in that assay.

Structures are written as SMILES.

human GOAT, sequence (Q96T53 whole entry): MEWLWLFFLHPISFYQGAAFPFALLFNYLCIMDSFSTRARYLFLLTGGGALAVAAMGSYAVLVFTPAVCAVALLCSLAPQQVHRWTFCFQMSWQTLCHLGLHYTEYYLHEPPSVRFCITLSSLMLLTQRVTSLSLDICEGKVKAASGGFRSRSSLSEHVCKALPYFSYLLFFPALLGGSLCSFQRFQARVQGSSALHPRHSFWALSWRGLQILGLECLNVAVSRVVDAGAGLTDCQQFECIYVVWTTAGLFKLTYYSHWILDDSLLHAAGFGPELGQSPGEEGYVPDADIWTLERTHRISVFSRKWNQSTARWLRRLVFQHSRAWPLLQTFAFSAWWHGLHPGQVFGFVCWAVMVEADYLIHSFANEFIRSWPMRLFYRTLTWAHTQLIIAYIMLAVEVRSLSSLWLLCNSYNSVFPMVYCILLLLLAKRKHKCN
GOAT, sequence (P0C7A3 whole entry): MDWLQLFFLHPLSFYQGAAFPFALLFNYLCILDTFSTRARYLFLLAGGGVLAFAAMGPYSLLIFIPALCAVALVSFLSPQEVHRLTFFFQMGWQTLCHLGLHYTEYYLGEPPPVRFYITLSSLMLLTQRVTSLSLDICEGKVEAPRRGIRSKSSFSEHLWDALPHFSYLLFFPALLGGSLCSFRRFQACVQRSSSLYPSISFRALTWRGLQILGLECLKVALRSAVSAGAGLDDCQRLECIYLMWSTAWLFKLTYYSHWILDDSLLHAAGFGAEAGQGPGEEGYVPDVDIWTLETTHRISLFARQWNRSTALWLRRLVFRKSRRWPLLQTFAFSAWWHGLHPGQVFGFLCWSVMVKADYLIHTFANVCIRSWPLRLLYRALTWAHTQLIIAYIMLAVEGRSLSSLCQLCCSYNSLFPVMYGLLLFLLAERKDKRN

For `COc1ccccc1C(=O)N[C@@H](C)C(=O)N1CCC(CCc2c(C)nc(C(F)(F)F)nc2N)CC1` [Example 17, N-[(1S)-2-[4-[2-[4-Amino-6-methyl-2-(trifluoromethyl)pyrimidin-5-yl]ethyl]-1-piperidyl]-1-methyl-2-oxo-ethyl]-2-methoxy-benzamide], the IC50 in assay [1] is 420 nM.
As to `Cc1nc(C(F)(F)F)nc(N)c1CCC1CCN(C(=O)[C@H](C)NC(=O)c2nccnc2Cl)CC1` [Example 15, N-[(1S)-2-[4-[2-[4-Amino-6-methyl-2-(trifluoromethyl)pyrimidin-5-yl]ethyl]-1-piperidyl]-1-methyl-2-oxo-ethyl]-3-chloro-pyrazine-2-carboxamide], the IC50 in assay [1] amounted to 55.7 nM.
In assay [1], `Cc1nc(C(F)(F)F)nc(N)c1CCC1CCN(C(=O)[C@H](C)NC(=O)c2ccnn2C)CC1` [Example 2, N-[(1 S)-2-[4-[2-[4-Amino-6-methyl-2-(trifluoromethyl)pyrimidin-5-yl]ethyl]-1-piperidyl]-1-methyl-2-oxo-ethyl]-2-methyl-pyrazole-3-carboxamide] showed an IC50 of 69.5 ± 0.6 nM. Also, the “reduction in AG to total ghrelin ratio” value in assay [2] (0.1 mg/kg) was found to be 57%; in assay [2] (0.3 mg/kg), 62%; in assay [2] (1 mg/kg) it was 79%; in assay [2] (3 mg/kg) it was 82%; in assay [2] (10 mg/kg), 82%. In addition, the “decrease of plasma AG” value is listed as 40% in assay [2] (0.1 mg/kg); 60% in assay [2] (0.3 mg/kg); 56% in assay [2] (1 mg/kg); 63% in assay [2] (3 mg/kg); 63% in assay [2] (10 mg/kg). Moreover, the “AG (% of control)” value is reported as 60 ± 8 (n = 7) % of control in assay [2] (0.1 mg/kg oral gavage BID); 40 ± 10 (n = 7) % of control in assay [2] (0.3 mg/kg oral gavage BID); 44 ± 6 (n = 14) % of control in assay [2] (1 mg/kg oral gavage BID); 37 ± 9.6 (n = 14) % of control in assay [2] (3 mg/kg oral gavage BID); 37 ± 9.9 (n = 7) % of control in assay [2] (10 mg/kg oral gavage BID). Further, the “AG/Total-ghrelin (% of vehicle control)” value is on record as 43 ± 3 (n = 7) % of vehicle control in assay [2] (0.1 mg/kg oral gavage BID); 28 ± 1 (n = 7) % of vehicle control in assay [2] (0.3 mg/kg oral gavage BID); 21 ± 1 (n = 14) % of vehicle control in assay [2] (1 mg/kg oral gavage BID); 18 ± 5 (n = 14) % of vehicle control in assay [2] (3 mg/kg oral gavage BID); 18 ± 3 (n = 7) % of vehicle control in assay [2] (10 mg/kg oral gavage BID). The “UAG (% of vehicle control)” value in assay [2] (0.1 mg/kg oral gavage BID) is 210 ± 43 (n = 7) % of vehicle control; in assay [2] (0.3 mg/kg oral gavage BID), 222 ± 54 (n = 7) % of vehicle control; in assay [2] (1 mg/kg oral gavage BID), 357 ± 30 (n = 14) % of vehicle control; in assay [2] (3 mg/kg oral gavage BID), 349 ± 41 (n = 14) % of vehicle control; in assay [2] (10 mg/kg oral gavage BID), 378 ± 59 (n = 7) % of vehicle control. For the same compound, the “increase of UAG” value in assay [2] (0.1 mg/kg) was determined as 2.10 fold; in assay [2] (0.3 mg/kg), 2.22 fold; in assay [2] (1 mg/kg), 3.57 fold; in assay [2] (3 mg/kg), 3.49 fold; in assay [2] (10 mg/kg) it was 3.78 fold.
For `COC(=O)N[C@@H](C)C(=O)N1CCC(CCc2c(C)nc(C(F)(F)F)nc2N)CC1` [Example 20, Methyl-[(1S)-2-[4-[2-[4-amino-6-methyl-2-(trifluoromethyl)pyrimidin-5-yl]ethyl]-1-piperidyl]-1-methyl-2-oxo-ethyl]carbamate], in assay [1], the midpoint of inhibition, the IC50, lay at 615 nM.
Still for that read-out and setting: as for `Cc1nc(C(F)(F)F)nc(N)c1CCC1CCN(C(=O)[C@H](C)NC(=O)CO)CC1` [Example 18, N-[(1S)-2-[4-[2-[4-Amino-6-methyl-2-(trifluoromethyl)pyrimidin-5-yl]ethyl]-1-piperidyl]-1-methyl-2-oxo-ethyl]-2-hydroxy-acetamide], the figure is 276 nM.

Values taken from patent US10093651B2, “Ghrelin O-acyl transferase inhibitors” (Eli Lilly and Company, priority 2015, dated 2018).
